Test results reported in patent publication US20230233584A1, “EXTENDED RELEASE 5-HT RECEPTOR AGONISTS FOR NEUROLOGICAL CONDITIONS” (Diamond Therapeutics Inc., priority 2020, published 2023).
Like-named read-outs stand apart in the source and are kept apart here.

How the values were obtained:
[1] = Minipump infusion of psilocybin over 12 days: plasma/blood exposure; assay type: in vivo, rats
Protocol: A dose of psilocybin, which is free from perceptual and behavioral side effects, was dosed in rats (N=24) continuously over a period of 12 days using an Alzet minipump implanted in rats of approximately 380-390 g body weight. The pump was primed to deliver psilocybin at 5 mg/kg/day pump concentration. The target plasma concentration was 10 ng/ml psilocin with actual plasma concentration 9.3+1.3 ng/ml over the 12 day study period.
Blood was collected from rats on days 4, 8 and 12 to measure levels of psilocybin and psilocin in Group B rats. Blood was collected via saphenous bleed at a standard timepoint which will not interfere with 5-choice testing. Psilocin blood levels were in the range of 8-10 ng/ml over days 4-12, while psilocybin blood levels were in the range of 2-5 ng/ml over days 4-12 (FIG. 7A), corresponding to 10 ng/mL psilocin. […] The present observations recorded for psilocybin/psilocin are occurring at exposure levels of psilocin ˜10 ng/ml (e.g., FIG. 5), likely resulting in a low level of CNS 5-HT2A receptor occupancy, and which is insufficient to elicit cardinal signs of 5-HT2A receptor activation such as WDS/BMC in rats (e.g., FIG. 1B).

[2] = Psilocybin and psilocin plasma pharmacokinetics after s.c. psilocybin; assay type: in vivo, rats; conditions: for Cmax / concentration at 0.25 h / concentration at 0.5 h / concentration at 0.75 h / concentration at 1 h / concentration at 2 h / concentration at 4 h / concentration at 6 h / Tmax / AUC(0-inf) / AUC(0-t) / half-life / MRT inf: rat, rats; for Cmax / concentration at 0.25 h / concentration at 0.5 h / concentration at 0.75 h / concentration at 1 h / concentration at 2 h / concentration at 4 h / concentration at 6 h: plasma; for AUC(0-inf): read-out: AUC0-inf, Mean; for AUC(0-t): read-out: AUC0-tlast, Mean; for half-life: read-out: Apparent t1/2, Mean (converted); for MRT inf: read-out: MRT0-inf, Mean
Protocol: Psilocybin doses of 0.05, 0.1, 1, 10 mg/kg were used to evaluate psilocybin and psilocin PK in rats. For the doses of psilocybin that positively effect behaviors in the low performers in the PR and 5CSRTT, e.g., 0.05-0.1 mg/kg, the corresponding Cm. of psilocin was ˜7±2 ng/ml at 30 minutes for 0.05 mg/kg, and at a dose of 0.1 mg/kg, the Cm. of psilocin was determined to be ˜12±3 ng/ml at 30 minutes (FIG. 5).
Details of the plasma concentration studies are shown in Tables 1-8 (psilocybin) and 9-16 (psilocin). Values in italics are below the lower level of quantitation (BLQ, <1 ng/mL) but were included in calculations. Values in bold and underlined are considered to be outliers and were omitted from calculations. Measured dosing solution concentrations were 0.0460, 0.0967, 0.948 and 9.65 mg/mL for 0.05, 0.1, 1 and 10 […].

[3] = subcutaneous, after psilocybin 0.05 mg/kg s.c.
[4] = subcutaneous, after psilocybin 0.1 mg/kg s.c.
[5] = subcutaneous, after psilocybin 1 mg/kg s.c.
[6] = subcutaneous, after psilocybin 10 mg/kg s.c.
[7] = sc, psilocin in plasma after psilocybin 0.05 mg/kg s.c.
[8] = sc, psilocin in plasma after psilocybin 0.1 mg/kg s.c.
[9] = sc, psilocin in plasma after psilocybin 1 mg/kg s.c.
[10] = sc, psilocin in plasma after psilocybin 10 mg/kg s.c.

CN(C)CCc1c[nH]c2cccc(O)c12 [psilocin, 4-hydroxy-N,N-dimethyltryptamine]
Plasma [psilocin] ([1]; Regimen 4, mini-pump chronic, improvement in attention in 10 s ITI 5-choice test): ~10 ng/mL | actual plasma concentration of psilocin ([1]; psilocybin minipump 5 mg/kg/day, over the 12 day study period, rats): 9.3 ± 1.3 ng/mL | Psilocin blood levels ([1]; psilocybin minipump, days 4-12, rats): 8 to 10 ng/mL | Plasma [psilocin] ([2]; Regimen 1, 0.05-0.1 mg/kg acute, increase in breakpoint under PR schedule (low performer subgroup)): ~5 to 12 ng/mL | Plasma [psilocin] ([2]; Regimen 2, 0.05-0.1 mg/kg acute, improvement in attention and response speed in 5-choice test (low performer subgroup)): ~5 to 12 ng/mL | Plasma [psilocin] ([2]; Regimen 3, 0.05-0.1 mg/kg acute, increase in PREM/PSV response in 10 s ITI 5-choice test (low impulsive subgroup)): ~5 to 12 ng/mL | Plasma [psilocin] ([2]; Regimen 5, ≥0.3 mg/kg acute, induction of overt 5-HT2A behaviors of WDS/BMC): ≥25 ng/mL | Cmax ([2]; sc, 0.05 mg/kg, psilocin in plasma after psilocybin 0.05 mg/kg s.c., read-out: Cmax, Mean): 7.14 ng/mL | Cmax ([2]; sc, 0.05 mg/kg, psilocybin 0.05 mg/kg, after 30 mins, read-out: Cmax psilocin): ~6 ng/mL | Cmax ([2]; sc, 0.1 mg/kg, psilocin in plasma after psilocybin 0.1 mg/kg s.c., read-out: Cmax, Mean): 11.7 ng/mL | Cmax ([2]; sc, 1 mg/kg, psilocin in plasma after psilocybin 1 mg/kg s.c., read-out: Cmax, Mean): 83.3 ng/mL | Cmax ([2]; sc, 10 mg/kg, psilocin in plasma after psilocybin 10 mg/kg s.c., read-out: Cmax, Mean): 1110 ng/mL | Cmax ([2]; subcutaneous, 0.05 mg/kg, psilocybin 0.05 mg/kg, after 30 mins, read-out: Cmax psilocin): ~7 ng/mL | Cmax ([2]; subcutaneous, 0.1 mg/kg, psilocybin 0.1 mg/kg, after 30 mins, read-out: Cmax psilocin): ~12 ng/mL | Cmax ([2]; subcutaneous, 1 mg/kg, psilocybin 1 mg/kg, after 30 mins, read-out: Cmax psilocin): ~83 ng/mL | Cmax ([2]; subcutaneous, 10 mg/kg, psilocybin 10 mg/kg, after 30 mins, read-out: Cmax psilocin): ~1110 ng/mL | concentration at 0.25 h [2, 3]: 3.76 ng/mL | concentration at 0.5 h [2, 3]: 5.68 ng/mL | concentration at 0.75 h [2, 3]: 3.11 ng/mL | concentration at 1 h [2, 3]: 5.91 ng/mL | concentration at 2 h [2, 3]: 2.23 ng/mL | concentration at 4 h [2, 3]: 0.49 ng/mL | concentration at 6 h [2, 3]: 0.136 ng/mL | concentration at 0.25 h [2, 4]: 9.35 ng/mL | concentration at 0.5 h [2, 4]: 12.3 ng/mL | concentration at 0.75 h [2, 4]: 7.73 ng/mL | concentration at 1 h [2, 4]: 5.7 ng/mL | concentration at 2 h [2, 4]: 2.78 ng/mL | concentration at 4 h [2, 4]: 0.535 ng/mL | concentration at 6 h [2, 4]: 0.215 ng/mL | concentration at 0.25 h [2, 5]: 74.5 ng/mL | concentration at 0.5 h [2, 5]: 76.6 ng/mL | concentration at 0.75 h [2, 5]: 70.3 ng/mL | concentration at 1 h [2, 5]: 69.9 ng/mL | concentration at 2 h [2, 5]: 29.7 ng/mL | concentration at 4 h [2, 5]: 5.5 ng/mL | concentration at 6 h [2, 5]: 1.34 ng/mL | concentration at 0.25 h [2, 6]: 704 ng/mL | concentration at 0.5 h [2, 6]: 898 ng/mL | concentration at 0.75 h [2, 6]: 1080 ng/mL | concentration at 1 h [2, 6]: 1070 ng/mL | concentration at 2 h [2, 6]: 713 ng/mL | concentration at 4 h [2, 6]: 269 ng/mL | concentration at 6 h [2, 6]: 132 ng/mL | Tmax [2, 7]: 36 min | AUC(0-inf) [2, 7]: 10.3 ng·h/mL | AUC(0-t) [2, 7]: 10.1 ng·h/mL | half-life [2, 7]: 60 min | MRT inf [2, 7]: 104 min | Tmax [2, 8]: 32.2 min | AUC(0-inf) [2, 8]: 15.7 ng·h/mL | AUC(0-t) [2, 8]: 12.5 ng·h/mL | half-life [2, 8]: 55.1 min | MRT inf [2, 8]: 85.2 min | Tmax [2, 9]: 34.3 min | AUC(0-inf) [2, 9]: 143 ng·h/mL | AUC(0-t) [2, 9]: 117 ng·h/mL | half-life [2, 9]: 52.7 min | MRT inf [2, 9]: 91.8 min | Tmax [2, 10]: 42.8 min | AUC(0-inf) [2, 10]: 3380 ng·h/mL | AUC(0-t) [2, 10]: 2280 ng·h/mL | half-life [2, 10]: 99 min | MRT inf [2, 10]: 160 min
